From PubChem BioAssay AID2008 (University of Pittsburgh Molecular Library Screening Center, 2009)
Active and inactive are the calls of the source. The rule behind the calls is not given here.

System: Leishmania major promastigote growth inhibition
Test: antileishmanial activity against L. major promastigotes – EC50, dose response (AID 2008)

`COC(=O)c1ccc(-c2ccc(CNCC(O)c3ccccc3)o2)cc1` (stereo not given) showed an EC50 of 0.102 µM.

`CCCc1n[nH]c2c1/C(=N/O)CC(c1ccccc1)C2` (stereo not given) showed an EC50 of 1.5 µM.

`Cc1ccccc1NC1=C/C(=N\S(=O)(=O)c2cccs2)c2ccccc2C1=O` gave an EC50 of 0.208 µM.

`O=c1c(Cl)nc2cc(Cl)ccc2n1CCNc1ncc(C(F)(F)F)cc1Cl` gave an EC50 of 0.512 µM.

In the case of `CCCCCCCCC[n+]1cccc2c3ccccc3ccc21`, the EC50 is reported as 0.00245 µM.

`O=Nc1c2cc(-c3ccccc3)[nH]nc-2c2ccccc12` was tested, and the EC50 was 2.21 µM.

Work on `CCCCCCCCCCCCCCCC[n+]1ccc(/C=N/O)cc1` yielded an EC50 of 0.00938 µM.

`COc1ccc(-[n+]2c(C)cc(/C=C3\Sc4ccccc4N3C)cc2C)cc1` was tested, and the EC50 was < 0.01 µM.

`CC1(C)Cc2ccccc2-c2nnc(-c3ccc4ccccc4n3)n21` was tested, and the EC50 was 1.02 µM.

`O=C(NC1CCCC1)C(c1ccc(F)cc1)N(Cc1ccc(Cl)cc1)C(=O)CCl` (stereo not given) gave an EC50 of 1.76 µM.

In the case of `Nc1cccc2nc3ccccc3cc12`, the EC50 is reported as 0.635 µM.

In the case of `N=C(N)SCc1cn(-c2ccccc2)nc1-c1ccc(Br)cc1`, the EC50 is reported as 1.3 µM.

`[O-][N+]1=c2ccc(Nc3ccccc3)cc2=NC12CCCCC2` showed an EC50 of 0.84 µM.

In the case of `Clc1ccc2[nH]cc(-c3nnnn3-c3ccc4ccccc4c3)c2c1`, the EC50 is reported as 1.54 µM.

Compound `O=[N+]([O-])c1ccc(-c2nc(-c3cccs3)c(-c3cccs3)[nH]2)cc1` has an EC50 of 1.97 µM.

With `O=C(CCl)Nc1cccc(-c2cnc3ccccc3n2)c1` the EC50 was 1.11 µM.

`CC(C)CCN(C)C1CCN(S(=O)(=O)c2cccc(C(F)(F)F)c2)CC1` gave an EC50 of 0.00917 µM.

Work on `COC(=O)CNc1nc(-c2ccccc2F)nc2ccccc12` yielded an EC50 of 0.742 µM.

With `COc1cc(NC(C)CCCN)c2ncccc2c1Oc1ccccc1` (stereo not given) the EC50 was < 0.01 µM.

In the case of `CCn1nc(/C=C/c2ccccc2)nc2c(=O)n(C)c(=O)nc1-2`, the EC50 is reported as > 5 µM (inactive).

`COc1ccc(Cn2c(-c3ccc(OC)cc3)nc3ccccc32)cc1` gave an EC50 of 1.11 µM.

`CN(C)CCCN=c1cc(-c2ccccc2)oc2ccc(Cl)cc12` gave an EC50 of 1.64 µM.

In the case of `Cc1cc(C)c2c(c1)-c1cc(C)nn1C(c1ccc3c(c1)OCO3)N2` (stereo not given), the EC50 is reported as 1.32 µM.

`CCCc1nc2c(=O)n(C)c(=O)nc-2n(C)n1` showed an EC50 of 0.214 µM.

In the case of `COc1ccc2c3c(cccc13)NN=C2C`, the EC50 is reported as 0.255 µM.

`C[C@@]1(CO)[C@H](O)CC[C@@]2(C)[C@H]1CC[C@H]1C[C@@H]3C[C@@]12CC[C@]3(O)CO` showed an EC50 of 0.121 µM.

`O=C1C2ON(c3ccc(Br)cc3)C(c3cccnc3)C2C(=O)N1C1CCCCC1` (stereo not given) was tested, and the EC50 was 0.513 µM.

In the case of `COC(=O)c1cccc(Cn2c(Cl)c(/C=N/Nc3ccccc3C)sc2=O)c1`, the EC50 is reported as 0.528 µM.

`CN(CCN1CCc2ccccc2C1)Cc1nc(Cc2ccccc2F)no1` gave an EC50 of 1.4 µM.

`N=C(N)c1ccc(OCCCCCOc2ccc(C(=N)N)cc2)cc1` showed an EC50 of 0.0451 µM.

For `Cc1c(Cl)sn(-c2ccc(Cl)cc2)c1=O`, the EC50 was 0.545 µM.

With `CCOC(=O)c1c(-c2ccc(F)cc2)csc1NC(=O)CCN1CCOCC1` the EC50 was 0.176 µM.

`O=[N+]([O-])c1cc([N+](=O)[O-])c2n[nH]c(-c3ccccc3)c2c1` was tested, and the EC50 was 0.402 µM.

`CN(C)C(=S)SSC(=S)N(C)C` gave an EC50 of 0.0971 µM.

Work on `O=C(/C=C/c1ccccc1)CC(O)(c1ccccc1)C(F)(F)F` (stereo not given) yielded an EC50 of 1.24 µM.

Compound `CC(C)(C)c1ccc(-c2ncccc2O)cc1` has an EC50 of 0.299 µM.

In the case of `NC(C(=O)O)C1CC(Cl)=NO1` (stereo not given), the EC50 is reported as 0.177 µM.

`COc1ccc(NC(=O)/C(Cl)=C(/Cl)S(=O)Cc2ccccc2Cl)cn1` (stereo not given) was tested, and the EC50 was 0.241 µM.

`Cc1cc(C(=O)CCl)c(C)n1Cc1ccco1` showed an EC50 of 0.783 µM.

`c1ccc(-c2cc(-c3nnc4sc(-c5ccccn5)nn34)[nH]n2)cc1` gave an EC50 of 4.09 µM.

With `Cc1nn(-c2ccccn2)c2c1C(=O)C(Br)CC2` (stereo not given) the EC50 was 0.967 µM.

With `O=C1C(=O)c2c(C(=O)c3ccccc3)coc2-c2ccccc21` the EC50 was 1.25 µM.

Compound `COc1cc(-c2c(C#N)c(N)nc(SCc3ccncc3)c2C#N)cc(OC)c1OC` has an EC50 of 1.02 µM.

In the case of `NCC12CC3CC(C1)CC(c1ccc(Cl)cc1)(C3)C2`, the EC50 is reported as 0.354 µM.

In the case of `Cc1[nH]c2c(Cl)cccc2c(=O)c1CN1CCCC1`, the EC50 is reported as 0.39 µM.

`COC(=O)c1ccc(COc2ccc(C3C4=C(CCCC4=O)Nc4onc(C)c43)cc2)cc1` (stereo not given) showed an EC50 of 1.54 µM.

In the case of `COc1ccc(S(=O)(=O)Nc2ccc(O)c3ccccc23)cc1`, the EC50 is reported as 0.268 µM.

For `c1ccc(CNc2nc(-c3cccs3)nc3ccccc23)cc1`, the EC50 was 2.14 µM.

`COC(=O)c1cc2ccsc2n1Cc1nc(-c2ccc(OC)cc2)oc1C` gave an EC50 of 0.104 µM.

In the case of `CN(C)c1cc(N/N=C/c2ccc(Cl)cc2)nc(N(C)C)n1`, the EC50 is reported as 0.502 µM.

For `O=C1CC(c2ccccc2Br)c2cc3c(cc2N1)CCC3` (stereo not given), the EC50 was 0.253 µM.

Compound `CC(=O)O[C@@H]1C[C@H]2C(C)(C)C(=O)C=C[C@]2(C)[C@H]2CC[C@@]3(C)[C@H](c4ccoc4)OC(=O)[C@H]4O[C@]43[C@@]21C` has an EC50 of 0.731 µM.

Compound `O=C(Nc1ccc(Cl)cn1)c1ccc([N+](=O)[O-])o1` has an EC50 of 0.205 µM.

`COC(=O)C1CN(C#N)N(c2ccc(Cl)cc2)C12c1ccccc1-c1ccccc12` (stereo not given) showed an EC50 of 0.0729 µM.

Work on `O=C(c1ccccc1)c1c2c(cc3sc4ccccc4[n+]13)-c1cccc3cccc-2c13` yielded an EC50 of 0.504 µM.

In the case of `N#Cc1cc(Oc2ccc3ccccc3c2)c(-n2nnc3ccccc32)cc1C#N`, the EC50 is reported as > 5 µM (inactive).

`CCC(C)(c1nnnn1-c1c(C)cccc1C)N(N=O)c1ccccc1Cl` (stereo not given) showed an EC50 of 0.324 µM.

`CCOC(=O)c1nnn(-c2nonc2-n2cccc2)c1CCl` showed an EC50 of 1.86 µM.

`CC(C)(C)c1ccc(-n2nc(C#N)c(Cl)cc2=O)cc1` gave an EC50 of 0.759 µM.

Work on `N=c1c2c(n(Cc3ccccc3)c3c1CCC3)CCC2` yielded an EC50 of 0.0834 µM.

`Cc1nc([N+](=O)[O-])nn1C12CC3CC(CC(Cl)(C3)C1)C2` was tested, and the EC50 was 0.856 µM.

For `CCN(CC)C(=S)SSC(=S)N(CC)CC`, the EC50 was 0.263 µM.

For `CCCCS(=O)(=O)/C=C\C=C/S(=O)(=O)CCCC`, the EC50 was 1.52 µM.

`Cc1ccc2nc3cc([N+](=O)[O-])cc([N+](=O)[O-])c3cc2c1` was tested, and the EC50 was 0.288 µM.

`Cc1cc(/C=C2\Sc3ccccc3N2C)cc(C)[n+]1CC1CCCO1` (stereo not given) showed an EC50 of 0.001 µM.

`CC(C)(C)c1ccc(C(=O)C2CCCN(C3CCC3)C2)cc1` (stereo not given) gave an EC50 of 0.0107 µM.

With `Cc1cccc(OCCn2c(NC(=O)c3ccco3)nc3ccccc32)c1` the EC50 was 1.87 µM.

`CN(C)c1nc(-c2ccccn2)nnc1-c1ccccc1` showed an EC50 of 1.46 µM.

`Cc1ccc(NC(=O)N2CCCN(Cc3ccc(F)cc3)C2)cc1C` gave an EC50 of 2.94 µM.

Compound `O=[N+]([O-])c1ccc(NNC(=S)Nc2ccc(F)cc2)cc1` has an EC50 of 0.449 µM.

Compound `CC(C)(C)C1CCC2(CC1)Nc1cccc3cccc(c13)N2` has an EC50 of 1.84 µM.

`O=C(c1cccnc1)N(c1cc2sc(=O)oc2c2ccccc12)S(=O)(=O)c1ccccc1` showed an EC50 of 0.191 µM.

Compound `O=C1C2CCN(CC2)C1Cc1ccc(OCCOc2ccccc2)cc1` (stereo not given) has an EC50 of 0.272 µM.

Compound `CCC(/C=C1\Sc2ccc(OC)cc2N1CCO)=C\c1sc2ccc(OC)cc2[n+]1CCO` has an EC50 of 0.487 µM.

`CN(C)CCOc1ccccc1Cc1ccccc1` was tested, and the EC50 was 0.498 µM.

In the case of `Clc1ccccc1C(c1ccccc1)(c1ccccc1)n1ccnc1`, the EC50 is reported as 0.145 µM.

Work on `COc1ccc(C(=O)C(CN2CCOCC2)c2ccccc2)cc1F` (stereo not given) yielded an EC50 of 2.04 µM.

For `c1ccc2c(c1)OC(CCCN1CCCCC1)c1ccccc1S2` (stereo not given), the EC50 was 0.134 µM.

`C[C@H]1C[C@@H](C)C(=O)[C@@H]([C@H](O)CC2CC(=O)NC(=O)C2)C1` showed an EC50 of 0.001 µM.

`O=C(c1ccc(-c2ccccc2)c(F)c1)C1CCCN(CCO)C1` (stereo not given) gave an EC50 of 0.51 µM.

For `O=C(Cn1cnc([N+](=O)[O-])c1)Nc1cc(Oc2ccc(Cl)cc2Cl)cc([N+](=O)[O-])c1`, the EC50 was 1.51 µM.

For `Cc1ccc2c(c1)c(=O)c1c3n2CCN(C(=O)CCl)C3CC1` (stereo not given), the EC50 was 1.97 µM.

`CCc1ccc(NSc2ccccc2[N+](=O)[O-])cc1` gave an EC50 of 0.748 µM.

Compound `COc1ccc(/C=C/c2cc[n+](C(=O)Cc3ccccc3)cc2)cc1` has an EC50 of 0.0496 µM.

For `c1cnc2c(c1)ccc1cccnc12`, the EC50 was > 5 µM (inactive).
